Data on 4 compounds can be found in US11052153B2, “Highly branched alpha-D-glucans” (Purdue Research Foundation, priority 2012, dated 2021).

The MIC is the smallest concentration in the dilution series that meets the test's criterion for growth inhibition. The low end stands for greater potency, the high end for weaker potency. As a reminder, the solubility is how much of the substance goes into solution per volume. Read a low solubility as a poorly soluble substance.

A short description of data set [1]: Curcumin solubility in pH 6.5 10 mM NaAc buffer as affected by carriers. Conditions: carrier 10 mg/mL; for Curcumin Solubility: excess curcumin homogenized. The data set is classed as physicochemical. As for the experimental part: Thereafter, 1.0 mL aliquot was drawn from each mixture and subjected to centrifugation. The supernatant was added to ethanol to extract curcumin.

In the next data set the test system is Salmonella typhimurium. Description: Minimum inhibitory concentration of thymol in BHI broth (turbidity). Format: cell-based. The conditions noted are these: Salmonella enterica, 37° C., 24 hours, 1.0% (v/v) inoculum. As for the experimental part: The mixture was subjected to high speed homogenization. After homogenization, the dispersion was centrifuged to collect aqueous liquid. The concentration of thymol in this phytoglycogen-thymol liquid stock was determined to be about 400 μg/mL. As reference, a thymol-alone stock of 400 μg/mL in sodium acetate buffer (50 mM, pH 5.5) was prepared by adding thymol in the buffer and vortex. The phytoglycogen-thymol stock and thymol-alone stock were added to Brain Heart Infusion (BHI) broth to make the thymol concentrations of 12.5, 25, 50, 80, 100, and 125 μg/mL. To the glass tubes containing these broth liquids, Salmonella typhimurium culture (about 10^9 CFU/mL) was inoculated at a 1.0% (v/v) level, and all liquids were incubated at 37° C. for 24 hours. Thereafter, the tubes were photographed for comparing the turbidity.

A further data set is described as follows: physchem. The data set is classed as physicochemical. The conditions noted are these: 22 °C, pH 6.6, aqueous buffer, kinetic from dmso stock.

For the compound hydroxypropyl β-cyclodextrin [HPβCD], in data set [1], the Carrier/curcumin ratio was 91/1 and the “Curcumin Solubility” value is 110 µg/mL.
Consider `Cc1ccc(C(C)C)c(O)c1` [thymol-alone, thymol], for which the minimum inhibitory concentration (MIC) against Salmonella typhimurium is above 125 µg/mL.
As for `COc1cc(/C=C/C(=O)CC(=O)/C=C/c2ccc(O)c(OC)c2)ccc1O` [curcumin], the solubility at 2 h in “physchem” is below 0.3 µg/mL.
Consider `OC[C@H]1O[C@@H]2O[C@H]3[C@H](O)[C@@H](O)[C@@H](O[C@H]4[C@H](O)[C@@H](O)[C@@H](O[C@H]5[C@H](O)[C@@H](O)[C@@H](O[C@H]6[C@H](O)[C@@H](O)[C@@H](O[C@H]7[C@H](O)[C@@H](O)[C@@H](O[C@H]8[C@H](O)[C@@H](O)[C@@H](O[C@H]1[C@H](O)[C@H]2O)O[C@@H]8CO)O[C@@H]7CO)O[C@@H]6CO)O[C@@H]5CO)O[C@@H]4CO)O[C@@H]3CO` [βCD, β-cyclodextrin], for which, in data set [1], the Carrier/curcumin ratio is reported as 222/1 and the “Curcumin Solubility” value was 45.1 µg/mL.
